Source: US12209079B2 (GENERAL INCORPORATED ASSOCIATION PHARMA VALLEY PROJECT …, priority 2017, dated 2025)
Where a name gives a salt, the structure may show the parent alone.

How the values were obtained:
[1] = biological target: rhTDO (recombinant human TDO) (Homo sapiens, UniProt P48775); assay: Enzyme assay using rhTDO (rate of kynurenine production); assay type: biochemical; conditions: 2 h; final concentration of the compound 10 μM; rate relative to reaction without compound; read-out: rhTDO-mediated kynurenine production
How it was run: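 Kynurenine output, as percent of untreated control after background subtraction, read at 490 nm with p-dimethylbenzaldehyde following TCA quench and 15 min heating at 50 °C. Reaction: rhTDO with compound, 10 min preincubation then 120 min at 37 °C, started by 20 mM tryptophan stock, in phosphate/ascorbate/methylene blue/catalase.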

TDO in A172 cells = biological target: T1, TDO in A172 cells (Homo sapiens, UniProt P48775); assay: TDO cell-based assay, kynurenine production in A172 cells; conditions: A 172; final concentration of the compound 10 μM; rate relative to culture without compound
T1 construct: endogenous in cells; host or cells: A172 cells
How it was run: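 A172 cells were preincubated with compound for 1 h, then given L-tryptophan (final 524 μM) for 24 h at 37 °C. Kynurenine was read at 460 nm after p-dimethylbenzaldehyde/TCA reagent, background-subtracted, and expressed as % of no-compound production.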

IDO in A431 cells = biological target: T2, IDO in A431 cells (Homo sapiens, UniProt P14902); assay: IDO cell-based assay, kynurenine production in IFN-γ stimulated A431 cells; conditions: A-431, 24 h; final concentration of the compound 10 μM; rate relative to culture without compound
T2 construct: endogenous in cells; host or cells: A431 cells, IFN-γ stimulated
How it was run: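 A431 cells were cultured 24 h, then preincubated 1 h with compound in medium containing 178 μM L-tryptophan, and stimulated with IFN-γ (diluted to 100 ng/mL before addition) for 24 h. Kynurenine was measured by p-dimethylbenzaldehyde absorbance at 460 nm, background-subtracted, and expressed as % production versus no-compound control.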

[2] = biological target: rhIDO (recombinant human IDO) (Homo sapiens, UniProt P14902); assay: Enzyme assay using rhIDO (rate of kynurenine production); assay type: biochemical; conditions: 2 h; final concentration of the compound 10 μM; rate relative to reaction without compound; read-out: rhIDO-mediated kynurenine production
How it was run: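 rhIDO preincubated with compound 10 min at 37 °C in phosphate buffer with ascorbate, methylene blue and catalase; started with 2 mM tryptophan solution (stock) and run 120 min at 37 °C. Stopped with TCA and heated to convert N-formylkynurenine; kynurenine read at 490 nm after p-dimethylbenzaldehyde, background-subtracted, as % of no-compound control.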

T1 sequence (P48775 whole entry): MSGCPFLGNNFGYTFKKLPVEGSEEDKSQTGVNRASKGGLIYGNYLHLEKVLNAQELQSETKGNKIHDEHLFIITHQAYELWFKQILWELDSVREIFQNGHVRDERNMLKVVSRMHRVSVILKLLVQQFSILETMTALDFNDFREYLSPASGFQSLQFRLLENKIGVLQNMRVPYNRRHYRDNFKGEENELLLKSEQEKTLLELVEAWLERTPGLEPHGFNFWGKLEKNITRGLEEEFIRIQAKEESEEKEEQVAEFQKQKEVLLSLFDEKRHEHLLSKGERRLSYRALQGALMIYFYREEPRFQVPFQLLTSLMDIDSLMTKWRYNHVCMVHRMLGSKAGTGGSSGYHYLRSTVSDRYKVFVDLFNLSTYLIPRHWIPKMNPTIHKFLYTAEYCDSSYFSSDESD
Chain of rhTDO (recombinant human TDO) (P48775 whole entry): as above
Chain of rhIDO (recombinant human IDO) (P14902 whole entry): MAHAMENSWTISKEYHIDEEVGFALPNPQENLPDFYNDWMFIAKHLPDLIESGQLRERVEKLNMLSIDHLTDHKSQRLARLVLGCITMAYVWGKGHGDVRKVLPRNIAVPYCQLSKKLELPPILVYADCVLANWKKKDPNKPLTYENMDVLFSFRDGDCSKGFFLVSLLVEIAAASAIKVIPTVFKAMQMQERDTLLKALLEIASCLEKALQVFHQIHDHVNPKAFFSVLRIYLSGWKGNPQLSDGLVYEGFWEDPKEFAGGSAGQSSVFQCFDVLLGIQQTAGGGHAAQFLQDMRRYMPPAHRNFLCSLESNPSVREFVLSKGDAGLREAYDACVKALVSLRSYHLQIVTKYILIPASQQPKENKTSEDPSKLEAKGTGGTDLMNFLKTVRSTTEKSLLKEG
T2 sequence (P14902 whole entry): as above

SMILES	remaining activity at 10 µM [1] [%]	remaining activity at 10 µM (TDO in A172 cells) [%]	remaining activity at 10 µM (IDO in A431 cells) [%]	remaining activity at 10 µM [2] [%]
Clc1ccc(CCN2CN=C(SCc3cc(Cl)c(Cl)cc3CSC3=NCN(CCc4ccc(Cl)c(Cl)c4)CN3)NC2)cc1Cl [Compound 38, 6,6′-(((4,5-Dichloro-1,2-phenylene)bis(methylene))bis(sulfanediyl))bis(3-(3,4-dichlorophenethyl)-1,2,3,4-tetrahydro-1,3,5-triazine)]	37	-1	2	16
CNC(=O)c1ncccc1CSC(=N)N [Compound 98, (2-(Methylcarbamoyl)pyridin-3-yl)methyl carbamimidothioate hydrobromide]	91	133	107	95
N#Cc1ccc(CNC(=O)Cc2ccccc2CSC(=N)N)cc1 [Compound 67, 2-(2-((4-Cyanobenzyl)amino)-2-oxoethyl)benzyl carbamimidothioate hydrobromide]	46	64	36	39
N=C(N)SCc1cccnc1CSC(=N)N [Compound 34, Pyridine-2,3-diylbis(methylene) dicarbamimidothioate dihydrobromide]	27	47	29	25
c1cnc(SCc2ccccc2CSc2ncccn2)nc1 [Compound 16, 1,2-bis((pyrimidin-2-ylthio)methyl)benzene]	68	74	76	66
Clc1ccc(CN2CN=C(SCc3cc(Cl)c(Cl)cc3CSC3=NCN(Cc4ccc(Cl)c(Cl)c4)CN3)NC2)cc1Cl [Compound 56, 6,6′-(((4,5-Dichloro-1,2-phenylene)bis(methylene))bis(sulfanediyl))bis(3-(3,4-dichlorobenzyl)-1,2,3,4-tetrahydro-1,3,5-triazine)]	35	2	4	41
Clc1ccc(CCN2CN=C(SCc3ccc(Br)cc3CSC3=NCN(CCc4ccc(Cl)c(Cl)c4)CN3)NC2)cc1Cl [Compound 39, 6,6′-(((4-Bromo-1,2-phenylene)bis(methylene))bis(sulfanediyl))bis(3-(3,4-dichlorophenethyl)-1,2,3,4-tetrahydro-1,3,5-triazine)]	38	7	0	7
N=C(N)SCc1ccccc1CC(=O)NCCc1ccccc1 [Compound 64, 2-(2-Oxo-2-(phenethylamino)ethyl)benzyl carbamimidothioate hydrobromide]	42	76	102	81
Clc1ccc(CCN2CN=C(SCc3ccccc3CSC3=NCN(CCc4ccc(Cl)c(Cl)c4)CN3)NC2)cc1Cl [Compound 22, 1,2-bis(((5-(3,4-dichlorophenethyl)-1,4,5,6-tetrahydro-1,3,5-triazin-2-yl)thio)methyl)benzene]	21	-1	6	20
N=C(N)SCc1cc(Br)ccc1C(=O)NCCc1ccc(Cl)cc1 [Compound 78, 5-Bromo-2-((4-chlorophenethyl)carbamoyl)benzyl carbamimidothioate hydrobromide]	25	56	112	74
N=C(N)SCc1cc(Br)ccc1C(=O)NCc1ccc(Cl)cc1Cl [Compound 89, 5-Bromo-2-((2,4-dichlorobenzyl)carbamoyl)benzyl carbamimidothioate hydrobromide]	12	51	122	81
COc1ccc(CSC(=N)N)c(CSC(=N)N)c1 [Compound 35, (4-Methoxy-1,2-phenylene)bis(methylene) dicarbamimidothioate dihydrobromide]	7	0	4	24
COc1cccc(CNC(=O)c2ccc(Br)cc2C[Se]C(=N)N)c1 [Compound 106, 5-Bromo-2-((3-methoxybenzyl)carbamoyl)benzyl carbamimidoselenoate hydrobromide]	98	48	64	90
Fc1cccc(CN2CN=C(SCc3ccccc3CSC3=NCN(Cc4cccc(F)c4)CN3)NC2)c1 [Compound 45]	33	0	13	65
Brc1ccc(CS/C(=N/C2CCCCC2)NC2CCCCC2)c(CS/C(=N/C2CCCCC2)NC2CCCCC2)c1 [Compound 57, (4-Bromo-1,2-phenylene)bis(methylene) (E,E)-bis(N,N′-dicyclohexylcarbamimidothioate) dihydrobromide]	80	12	3	83
Clc1ccc(CCN2CN=C(SCc3ccccc3CSC3=NCN(CCc4ccc(Cl)cc4Cl)CN3)NC2)c(Cl)c1 [Compound 21, 1,2-bis(((5-(2,4-dichlorophenethyl)-1,4,5,6-tetrahydro-1,3,5-triazin-2-yl)thio)methyl)benzene]	54	-1	6	30
COc1ccc(/N=C(\N)SCc2ccc(F)cc2CS/C(N)=N/c2ccc(OC)cc2)cc1 [Compound 128, (4-Fluoro-1,2-phenylene)bis(methylene) (E,E)-bis(N′-(4-methoxyphenyl)carbamimidothioate) dihydrobromide]	14	8	11	3
N/C(=N\c1ccc(Br)cc1)SCc1ccc(F)cc1CS/C(N)=N/c1ccc(Br)cc1 [Compound 126, (4-Fluoro-1,2-phenylene)bis(methylene) (E,E)-bis(N′-(4-bromophenyl)carbamimidothioate) dihydrobromide]	6	10	13	-1
Clc1ccc(CN2CN=C(SCc3ccc(Br)cc3CSC3=NCN(Cc4ccc(Cl)c(Cl)c4)CN3)NC2)cc1Cl [Compound 54, 6,6′-(((4-Bromo-1,2-phenylene)bis(methylene))bis(sulfanediyl))bis(3-(3,4-dichlorobenzyl)-1,2,3,4-tetrahydro-1,3,5-triazine)]	14	6	4	13
N=C(N)SCc1ccccc1CC(=O)NCCc1ccc(Cl)cc1 [Compound 68, 2-(2-((4-Chlorophenethyl)amino)-2-oxoethyl)benzyl carbamimidothioate hydrobromide]	31	81	101	82
